These results are taken from paper PMC4871132 (Journal of chemical information and modeling, 2016).

The subject of experiment [1] is P. falciparum NF54 strain (PfNF54). Put plainly: in vitro antiplasmodial assay, parasite lactate dehydrogenase assay. The experiment is classed as cell-based. As to conditions: Plasmodium falciparum, NF54, read-out: PfNF54 IC50.
Experiment [2] shares this test system. In words: in vitro antiplasmodial assay, [3H] hypoxanthine incorporation assay. The experiment is classed as cell-based. As to conditions: Plasmodium falciparum, NF54, read-out: PfNF54 IC50.
A further experiment concerns the target PfDHODH (Plasmodium falciparum, UniProt Q08210). In words: colorimetric DCIP PfDHODH enzyme inhibition assay. As to conditions: for % PfDHODH Inhibition at 10 μM: 10 μM compound; for IC50: read-out: PfDHODH IC50. Type of experiment: biochemical.
The target of a further experiment is hDHODH (Homo sapiens, UniProt Q02127). Put plainly: colorimetric DCIP human DHODH enzyme inhibition assay. The experiment is classed as biochemical.
Sequence of hDHODH (Q02127 whole entry): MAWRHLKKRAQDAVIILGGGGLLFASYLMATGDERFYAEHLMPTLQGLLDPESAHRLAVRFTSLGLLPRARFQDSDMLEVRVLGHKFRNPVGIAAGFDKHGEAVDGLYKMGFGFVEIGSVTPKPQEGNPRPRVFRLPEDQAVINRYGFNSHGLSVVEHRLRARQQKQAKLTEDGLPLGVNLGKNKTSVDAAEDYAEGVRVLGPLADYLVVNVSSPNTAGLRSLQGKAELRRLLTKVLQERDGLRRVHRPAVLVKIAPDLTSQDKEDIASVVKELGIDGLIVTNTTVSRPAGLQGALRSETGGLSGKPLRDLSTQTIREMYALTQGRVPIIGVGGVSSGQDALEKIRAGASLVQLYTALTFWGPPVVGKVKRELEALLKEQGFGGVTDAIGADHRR

Square brackets hold non-standard residues; d marks the D form. Peptide text beside a SMILES is read from it. * marks the point of attachment. ξ: configuration not given here. Cbz = O=C(OCc1ccccc1)*; ξM = CSCCC(N)C(=O)O

Sequence of PfDHODH (Q08210 24-569): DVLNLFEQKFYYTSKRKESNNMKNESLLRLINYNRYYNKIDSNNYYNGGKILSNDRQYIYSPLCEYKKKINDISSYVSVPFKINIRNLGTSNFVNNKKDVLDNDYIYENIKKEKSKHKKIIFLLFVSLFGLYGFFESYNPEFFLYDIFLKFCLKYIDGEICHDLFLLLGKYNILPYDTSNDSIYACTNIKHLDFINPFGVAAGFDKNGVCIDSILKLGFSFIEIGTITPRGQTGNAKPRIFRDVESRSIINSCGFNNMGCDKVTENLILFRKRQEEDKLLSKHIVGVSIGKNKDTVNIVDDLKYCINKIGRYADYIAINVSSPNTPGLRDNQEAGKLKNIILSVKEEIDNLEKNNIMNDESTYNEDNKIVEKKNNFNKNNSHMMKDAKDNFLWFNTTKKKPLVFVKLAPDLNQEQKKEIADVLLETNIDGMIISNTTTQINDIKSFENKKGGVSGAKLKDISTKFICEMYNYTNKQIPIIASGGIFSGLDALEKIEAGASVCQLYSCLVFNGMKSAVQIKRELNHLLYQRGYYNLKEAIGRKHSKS

`C[C@H]1[C@H](OC(=O)CCC(=O)O)O[C@@H]2O[C@@]3(C)CC[C@H]4[C@H](C)CC[C@@H]1[C@@]24OO3` [Artesunate]: the figures for the concentration for half-maximal inhibition (IC50) in experiment [1] and in experiment [2] were 0.01 µM and 0.009 µM, respectively.

For the compound `CCN(CC)CCCC(C)Nc1ccnc2cc(Cl)ccc12` (stereo not shown) [Chloroquine], the IC50 is 0.013 µM in experiment [1] and 0.012 µM in experiment [2].

On to `C=CCN(CC(O)CO)c1ccccc1` (stereo not shown) [NSC58504], for which the “% PfDHODH Inhibition at 10 μM” value on PfDHODH came out at 26%.

For `COC(=O)C(CC(=O)c1ccc2ccccc2c1)OC` (stereo not shown) [NSC72405], on PfDHODH, the “% PfDHODH Inhibition at 10 μM” value was 30% and the IC50 is above 100 µM.

On to `CCOC(=O)C(Cc1c[nH]c2ccc([N+](=O)[O-])cc12)C(=O)OCC` [NSC85231], for which, at PfDHODH, the “% PfDHODH Inhibition at 10 μM” value is on record as 28%.

`CCOC(=O)CSC(=S)Nc1ccc(Cl)cc1` [NSC85749]: at PfDHODH, the “PfDHODH inhibition, result in words” value was “moderately active at concentrations above 30 μM”; the “% PfDHODH Inhibition at 10 μM” value is given as 46%; the IC50 was above 100 µM.

Consider `CSCCC(NC(=O)COc1ccc(Cl)cc1Cl)C(=O)O` (stereo not shown) [NSC87887], for which the “% PfDHODH Inhibition at 10 μM” value on PfDHODH is listed as 28%.

On to `CSCCC(NC(=O)OCc1ccccc1)C(=O)NCC(=O)O` (stereo not shown) [NSC89636] (Cbz-[ξM]-Gly-OH), for which the “% PfDHODH Inhibition at 10 μM” value on PfDHODH is 26%.

As to `CCOC(=O)C(=CNc1cc(Cl)ccc1Cl)C(=O)OCC` [NSC137121], the “% PfDHODH Inhibition at 10 μM” value on PfDHODH is 0%.

`CCOC(=O)c1cnc(SC)nc1Nc1ccc(Cl)cc1` [NSC165287]: the “% PfDHODH Inhibition at 10 μM” value on PfDHODH turned out to be 11%.

Consider `CCOC(=O)C(=CNc1ccc2c(c1)OCO2)C(=O)OCC` [NSC332161], for which, on PfDHODH (10 µM), the “% PfDHODH Inhibition at 10 μM” value is listed as 63%. For the same compound, the IC50 on PfDHODH came out at 5.1 µM.

Take `CCOC(=O)C(=CNc1cccc(N(C)C)c1)C(=O)OCC` [NSC336047]: at PfDHODH, the “% PfDHODH Inhibition at 10 μM” value is reported as 93% and the concentration for half-maximal inhibition (IC50) was found to be 0.38 µM. Further, at hDHODH (from PfDHODH and hDHODH IC50), the “species-selectivity for PfDHODH over hDHODH” value was “highly species selective”. The IC50 at hDHODH (read-out: hDHODH IC50) was above 100 µM.

For the compound `CCOC(=O)C(=CNc1cccc2c(O)cccc12)C(=O)OCC` [NSC340225], the “% PfDHODH Inhibition at 10 μM” value at PfDHODH was determined as 3%.

`CCOC(=O)/C(C#N)=C/NCCc1c[nH]c2ccccc12` [NSC343533]: on PfDHODH, the “% PfDHODH Inhibition at 10 μM” value amounted to 50% and the IC50 was found to be 20 µM.

`O=NN(CCCl)C(=O)Nc1ccc2[nH]c3ccccc3c2c1` [NSC 116824]: the “% PfDHODH Inhibition at 10 μM” value on PfDHODH was found to be 3%.

A word on the IC50: it is the concentration that inhibits the measured activity by half.
